7 molecules from patent publication US10004701B2, “Methods and compositions for treating infection” (UNIVERSITY OF ROCHESTER, priority 2012, dated 2018) can be followed below.

Assay in all cases: AK assay 384-well format, Prestwick library screening
One test has as its system E. faecium. The test is classed as cell-based, Enterococcus faecium. To be noted: Enterococcus faecium, 3 h, 50 μM final drug concentration.
The subject of test [1] is S. aureus strain USA300-0114. In kind it is cell-based, Staphylococcus aureus. The conditions noted are these: Staphylococcus aureus, USA300, 3 h, 50 μM final drug concentration.
The test system of another test is K. pneumoniae. The test is classed as cell-based, Klebsiella pneumoniae. To be noted: Klebsiella pneumoniae, 3 h, 50 μM final drug concentration.
The test system of test [2] is A. baumannii strain 98-37-09. The test is classed as cell-based, Acinetobacter baumannii. To be noted: Acinetobacter baumannii, 983709, 3 h, 50 μM final drug concentration.
Another test deals with P. aeruginosa. In kind it is cell-based, Pseudomonas aeruginosa. To be noted: Pseudomonas aeruginosa, 3 h, 50 μM final drug concentration.
For the next test, the system named is E. cloacae. In kind it is cell-based, Enterobacter cloacae. The conditions noted are these: Enterobacter cloacae, 3 h, 50 μM final drug concentration.
In another test the test system is E. coli. In kind it is cell-based, Escherichia coli. The conditions noted are these: Escherichia coli, 3 h, 50 μM final drug concentration.
The mark [3] stands for this setting: planktonic, cutoff for positive-scoring molecules 3-fold increase, read-out: AK-based Prestwick Library Screening Results, E. faecium (fold increase in extracellular AK activity).
The mark [4] stands for this setting: planktonic, cutoff for positive-scoring molecules 3-fold increase, read-out: AK-based Prestwick Library Screening Results, S. aureus (fold increase in extracellular AK activity).
Where [5] appears, read: planktonic, cutoff for positive-scoring molecules 3-fold increase, read-out: AK-based Prestwick Library Screening Results, K. pneumoniae (fold increase in extracellular AK activity).
The mark [6] stands for this setting: planktonic, cutoff for positive-scoring molecules 3-fold increase, read-out: AK-based Prestwick Library Screening Results, A. baumannii (fold increase in extracellular AK activity).
Setting [7] is: planktonic, cutoff for positive-scoring molecules 3-fold increase, read-out: AK-based Prestwick Library Screening Results, P. aeruginosa (fold increase in extracellular AK activity).
[8] abbreviates: planktonic, cutoff for positive-scoring molecules 3-fold increase, read-out: AK-based Prestwick Library Screening Results, E. cloacae (fold increase in extracellular AK activity).
[9] abbreviates: planktonic, cutoff for positive-scoring molecules 3-fold increase, read-out: AK-based Prestwick Library Screening Results, E. coli (fold increase in extracellular AK activity).

Where a name gives a salt, the structure may show the parent alone. Read-outs that look alike come from different tables or passages of the source.

In the case of `CC(C)N(CCC(C(N)=O)(c1ccccc1)c1ccccn1)C(C)C` (stereo not shown) [Disopyramide], the fold induction at 50 µM with E. faecium (384-well format, cutoff for positive-scoring molecules 3-fold increase, read-out: AK-based Prestwick Library Screening Results, E. faecium (increase in extracellular AK activity)) was 0.9; in test [1] (384-well format, cutoff for positive-scoring molecules 3-fold increase, read-out: AK-based Prestwick Library Screening Results, S. aureus (increase in extracellular AK activity)), 2.7; in the test with K. pneumoniae (384-well format, cutoff for positive-scoring molecules 3-fold increase, read-out: AK-based Prestwick Library Screening Results, K. pneumoniae (increase in extracellular AK activity)) it was 0.6; in test [2] (384-well format, cutoff for positive-scoring molecules 3-fold increase, read-out: AK-based Prestwick Library Screening Results, A. baumannii (increase in extracellular AK activity)) it was 0.9; with P. aeruginosa (384-well format, cutoff for positive-scoring molecules 3-fold increase, read-out: AK-based Prestwick Library Screening Results, P. aeruginosa (increase in extracellular AK activity)), 0.9; with E. cloacae (384-well format, cutoff for positive-scoring molecules 3-fold increase, read-out: AK-based Prestwick Library Screening Results, E. cloacae (increase in extracellular AK activity)) it was 1. In addition, the fold induction at 50 µM in the test on E. coli (384-well format, cutoff for positive-scoring molecules 3-fold increase, read-out: AK-based Prestwick Library Screening Results, E. coli (increase in extracellular AK activity)) worked out at 0.9.
As for `C[C@@H]1O[C@@H](O[C@H]2[C@H](Oc3cc(O)c4c(c3)O[C@H](c3ccc(O)cc3)CC4=O)O[C@H](CO)[C@@H](O)[C@@H]2O)[C@H](O)[C@H](O)[C@H]1O` [Naringin hydrate], the fold induction at 50 µM in the test on E. faecium (planktonic, cutoff for positive 3-fold increase, read-out: AK-based Prestwick Library Screening Results, E. faecium (fold increase in extracellular AK activity)) came out at 1; in test [1] (planktonic, cutoff for positive 3-fold increase, read-out: AK-based Prestwick Library Screening Results, S. aureus (fold increase in extracellular AK activity)) it was 1.2; in the test on K. pneumoniae (planktonic, cutoff for positive 3-fold increase, read-out: AK-based Prestwick Library Screening Results, K. pneumoniae (fold increase in extracellular AK activity)), 0.9; in test [2] (planktonic, cutoff for positive 3-fold increase, read-out: AK-based Prestwick Library Screening Results, A. baumannii (fold increase in extracellular AK activity)), 1.2; with P. aeruginosa (planktonic, cutoff for positive 3-fold increase, read-out: AK-based Prestwick Library Screening Results, P. aeruginosa (fold increase in extracellular AK activity)), 1.3; in the test with E. cloacae (planktonic, cutoff for positive 3-fold increase, read-out: AK-based Prestwick Library Screening Results, E. cloacae (fold increase in extracellular AK activity)), 1.2. Also, in the test on E. coli (planktonic, cutoff for positive 3-fold increase, read-out: AK-based Prestwick Library Screening Results, E. coli (fold increase in extracellular AK activity)), the fold induction at 50 µM was determined as 1.3.
`C/C(=C(\CCOP(=O)(O)O)SC(=O)c1ccccc1)N(C=O)Cc1cnc(C)nc1N` [Benfotiamine]: the fold induction at 50 µM with E. faecium (setting [3]) was found to be 0.9; in test [1] (setting [4]), 0.5; with K. pneumoniae (setting [5]), 0.6; in test [2] (setting [6]) it was 0.7; in the test on P. aeruginosa (setting [7]), 0.6; in the test on E. cloacae (setting [8]), 0.8. The fold induction at 50 µM in the test with E. coli (setting [9]) was 0.7.
With `CCN1CCN(C(=O)N[C@@H](C(=O)N[C@@H]2C(=O)N3[C@@H]2SC(C)(C)[C@@H]3C(=O)O)c2ccccc2)C(=O)C1=O` [Piperacillin sodium salt], the fold induction at 50 µM is 0.9 with E. faecium (setting [3]); 0.4 in test [1] (setting [4]); 2.3 with K. pneumoniae (setting [5]); 3.3 in test [2] (setting [6]); 8.7 in the test with P. aeruginosa (setting [7]); 1.3 with E. cloacae (setting [8]). The fold induction at 50 µM in the test on E. coli (setting [9]) is 12.6.
Regarding `c1cncc(C2=NCCC2)c1` [Myosmine], the fold induction at 50 µM with E. faecium (planktonic, […], read-out: AK-based Prestwick Library Screening Results, E. faecium (fold increase in extracellular AK activity)) came to 0.9; in test [1] (planktonic, […], read-out: AK-based Prestwick Library Screening Results, S. aureus (fold increase in extracellular AK activity)) it was 0.4; in the test with K. pneumoniae (planktonic, […], read-out: AK-based Prestwick Library Screening Results, K. pneumoniae (fold increase in extracellular AK activity)), 0.5; in test [2] (planktonic, […], read-out: AK-based Prestwick Library Screening Results, A. baumannii (fold increase in extracellular AK activity)), 0.5; with P. aeruginosa (planktonic, […], read-out: AK-based Prestwick Library Screening Results, P. aeruginosa (fold increase in extracellular AK activity)), 0.4; in the test on E. cloacae (planktonic, […], read-out: AK-based Prestwick Library Screening Results, E. cloacae (fold increase in extracellular AK activity)), 0.4. In addition, the fold induction at 50 µM with E. coli (planktonic, […], read-out: AK-based Prestwick Library Screening Results, E. coli (fold increase in extracellular AK activity)) came to 0.5.
For the molecule `O=C(CCCN1CCC(O)(c2ccc(Br)cc2)CC1)c1ccc(F)cc1` [Bromperidol], the fold induction at 50 µM came out at 0.9 in the test with E. faecium (planktonic E. faecium, cutoff for positive-scoring molecules 3-fold increase, read-out: AK-based Prestwick Library Screening Results, E. faecium (increase in extracellular AK activity)); 0.7 in test [1] (planktonic S. aureus, cutoff for positive-scoring molecules 3-fold increase, read-out: AK-based Prestwick Library Screening Results, S. aureus (increase in extracellular AK activity)); 0.7 in the test with K. pneumoniae (planktonic K. pneumoniae, cutoff for positive-scoring molecules 3-fold increase, read-out: AK-based Prestwick Library Screening Results, K. pneumoniae (increase in extracellular AK activity)); 1 in test [2] (planktonic A. baumannii, cutoff for positive-scoring molecules 3-fold increase, read-out: AK-based Prestwick Library Screening Results, A. baumannii (increase in extracellular AK activity)); 1.1 in the test on P. aeruginosa (planktonic P. aeruginosa, cutoff for positive-scoring molecules 3-fold increase, read-out: AK-based Prestwick Library Screening Results, P. aeruginosa (increase in extracellular AK activity)); 1.1 in the test on E. cloacae (planktonic E. cloacae, cutoff for positive-scoring molecules 3-fold increase, read-out: AK-based Prestwick Library Screening Results, E. cloacae (increase in extracellular AK activity)). The fold induction at 50 µM in the test with E. coli (planktonic E. coli, cutoff for positive-scoring molecules 3-fold increase, read-out: AK-based Prestwick Library Screening Results, E. coli (increase in extracellular AK activity)) came to 0.8.
`O=C(CCCCC(=O)Nc1c(I)cc(I)c(C(=O)O)c1I)Nc1c(I)cc(I)c(C(=O)O)c1I` [Iodipamide]: the fold induction at 50 µM with E. faecium (cutoff for positive-scoring molecules 3-fold increase, read-out: AK-based Prestwick Library Screening Results, E. faecium (fold increase in extracellular AK activity)) came to 1; in test [1] (cutoff for positive-scoring molecules 3-fold increase, read-out: AK-based Prestwick Library Screening Results, S. aureus (fold increase in extracellular AK activity)) it was 1; with K. pneumoniae (cutoff for positive-scoring molecules 3-fold increase, read-out: AK-based Prestwick Library Screening Results, K. pneumoniae (fold increase in extracellular AK activity)) it was 1; in test [2] (cutoff for positive-scoring molecules 3-fold increase, read-out: AK-based Prestwick Library Screening Results, A. baumannii (fold increase in extracellular AK activity)), 1.2; in the test with P. aeruginosa (cutoff for positive-scoring molecules 3-fold increase, read-out: AK-based Prestwick Library Screening Results, P. aeruginosa (fold increase in extracellular AK activity)) it was 1.1; in the test on E. cloacae (cutoff for positive-scoring molecules 3-fold increase, read-out: AK-based Prestwick Library Screening Results, E. cloacae (fold increase in extracellular AK activity)), 1.6. Also, the fold induction at 50 µM with E. coli (cutoff for positive-scoring molecules 3-fold increase, read-out: AK-based Prestwick Library Screening Results, E. coli (fold increase in extracellular AK activity)) amounted to 1.2.
